Laboratory results taken from ChEMBL document CHEMBL6120956, “Discovery of a Potent, Orally Active, and Long-Lasting P2X7 Receptor Antagonist as a Preclinical Candidate for Delaying the Progression of Chronic Kidney Disease” (J Med Chem, 2024).
Activity calls are given as the source filed them. No cut-off for these calls is given here.

How the values were obtained:
[1] = molecular target: T1, P2X purinoceptor 7 (Mus musculus) (UniProt Q9Z1M0); assay: Antagonist activity against mouse P2X7 receptor expressed in ATP-stimulated HEK293 cells assessed as influx of PI at 1 uM by fluorescence dye uptake assay relative to control; assay type: cell-based; parameters: scale not given: the % may be the effect or the level left
T1 sequence (whole entry): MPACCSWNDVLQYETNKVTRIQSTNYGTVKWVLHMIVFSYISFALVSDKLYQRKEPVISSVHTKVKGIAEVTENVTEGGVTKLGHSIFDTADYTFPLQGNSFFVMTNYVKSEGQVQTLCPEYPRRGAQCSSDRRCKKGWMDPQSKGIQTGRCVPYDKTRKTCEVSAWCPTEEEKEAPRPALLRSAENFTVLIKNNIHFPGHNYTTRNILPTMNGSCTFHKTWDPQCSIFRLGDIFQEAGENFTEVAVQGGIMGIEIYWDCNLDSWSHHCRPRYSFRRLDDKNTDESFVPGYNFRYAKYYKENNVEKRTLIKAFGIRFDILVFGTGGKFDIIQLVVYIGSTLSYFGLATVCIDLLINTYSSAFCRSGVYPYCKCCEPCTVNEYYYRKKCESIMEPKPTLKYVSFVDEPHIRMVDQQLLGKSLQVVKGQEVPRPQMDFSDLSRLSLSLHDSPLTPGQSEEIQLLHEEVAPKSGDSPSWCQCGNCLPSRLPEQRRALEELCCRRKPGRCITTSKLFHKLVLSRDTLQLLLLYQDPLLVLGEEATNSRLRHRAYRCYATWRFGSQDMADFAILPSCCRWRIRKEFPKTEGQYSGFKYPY

[2] = molecular target: T1, P2X purinoceptor 7 (Mus musculus); assay: Antagonist activity against mouse P2X7 receptor expressed in ATP-stimulated HEK293 cells assessed as influx of PI at 200 nM by fluorescence dye uptake assay relative to control; assay type: cell-based; parameters: scale not given: the % may be the effect or the level left
[3] = Metabolic stability in mouse liver microsomes assessed as clearance; assay type: ADME, Microsome; conditions: read-out: CLH
[4] = molecular target: T2, P2X purinoceptor 7 (Mus musculus, UniProt Q9Z1M0); assay: Antagonist activity against mouse P2X7 receptor expressed in ATP-stimulated HEK293 cells assessed as influx of PI by fluorescence dye uptake assay relative to control; assay type: cell-based
T2 sequence (Q9Z1M0 whole entry): T1 sequence (whole entry)

[5] = Metabolic stability in human liver microsomes assessed as half life; assay type: ADME, Microsome
[6] = Metabolic stability in mouse liver microsomes assessed as half life; assay type: ADME, Microsome
[7] = Metabolic stability in human liver microsomes assessed as clearance; assay type: ADME, Microsome; conditions: read-out: CLH
[8] = AUC (0 to t) in male BALB/c mouse at 10 mg/kg, po single administration measured upto 72 hrs by LC-MS/MS analysis; assay type: ADME, organism-based; conditions: in vivo
[9] = Cmax in male BALB/c mouse at 10 mg/kg, po single administration measured upto 72 hrs by LC-MS/MS analysis; assay type: ADME, organism-based; conditions: in vivo
[10] = Clearance in male BALB/c mouse at 10 mg/kg, po single administration measured upto 72 hrs by LC-MS/MS analysis; assay type: ADME, organism-based; conditions: in vivo
[11] = Tmax in male BALB/c mouse at 10 mg/kg, po single administration measured upto 72 hrs by LC-MS/MS analysis; assay type: ADME, organism-based; conditions: in vivo
[12] = Half life in male BALB/c mouse at 10 mg/kg, po single administration measured upto 72 hrs by LC-MS/MS analysis; assay type: ADME, organism-based; conditions: in vivo

Row | Activity [1] | Activity [2] | SMILES | other results
1 | 5.1% | inactive | Cc1ccnc(-n2cc(CNC(=O)c3csc(-c4ccc(S(C)(=O)=O)cc4)n3)nn2)c1 | 
2 |  |  | CS(=O)(=O)c1ccc(-c2nc(C(=O)NCc3cn(-c4cc(N5CCC(F)(F)CC5)ccn4)nn3)cs2)cc1 | CLint scaled [3]: 273 mL/min/kg; IC50 [4]: 103 nM; half-life [5]: 32.1 min; half-life [6]: 20 min; CLint scaled [7]: 54.2 mL/min/kg
3 | 39.5% | 28.6% | CS(=O)(=O)c1ccc(-c2nc(C(=O)NCc3cn(-c4ccncc4Br)nn3)cs2)cc1 | 
4 |  |  | CS(=O)(=O)c1ccc(-c2nc(C(=O)NCc3cn(-c4cc(NC5CC(F)(F)C5)ccn4)nn3)cs2)cc1 | CLint scaled [3]: 166 mL/min/kg; IC50 [4]: 55.5 nM; half-life [5]: > 120 min; half-life [6]: 32.8 min; CLint scaled [7]: 13.8 mL/min/kg
5 | 44.4% | 30.7% | Cc1ccnc(-n2cc(CNC(=O)c3cnc(-c4ccc(S(C)(=O)=O)cc4)s3)nn2)c1 | 
6 | inactive | inactive | CS(=O)(=O)c1ccc(-c2nc(C(=O)NCc3cn(-c4ccc(Cl)cn4)nn3)cs2)cc1 | 
7 |  |  | CS(=O)(=O)c1ccc(-c2nc(C(=O)NCc3cn(-c4cc(-c5cccc(C(F)(F)F)c5)ccn4)nn3)cs2)cc1 | IC50 [4]: 449 nM
8 | 35.6% | 18.4% | CS(=O)(=O)c1ccc(-c2ncc(C(=O)NCc3cn(-c4cc(-c5ccc(C(F)(F)F)s5)ccn4)nn3)s2)cc1 | 
9 | 27.4% | 13.3% | CS(=O)(=O)c1ccc(-c2ncc(C(=O)NCc3cn(-c4cc(-c5cccc(C(F)(F)F)c5)ccn4)nn3)s2)cc1 | 
10 | inactive | inactive | CS(=O)(=O)c1ccc(-c2ncc(C(=O)NCc3cn(-c4cc(-c5ccc(C(F)(F)F)cc5)ccn4)nn3)s2)cc1 | 
11 | 37% | 27.1% | CS(=O)(=O)c1ccc(-c2nc(C(=O)NCc3cn(-c4cc(-c5ccc(C(F)(F)F)cc5)ccn4)nn3)cs2)cc1 | 
12 | 96.3% | 90.7% | Clc1cccc(-n2nnnc2NCc2ccccc2Oc2ccccn2)c1Cl | 
13 |  |  | CS(=O)(=O)c1ccc(-c2nc(C(=O)NCc3cn(-c4cc(C(F)(F)F)ccn4)nn3)cs2)cc1 | CLint scaled [3]: < 12 mL/min/kg; AUC(0-t) at 72 h [8]: 49800 ng·h/mL; IC50 [4]: 70.2 nM; half-life [5]: > 120 min; half-life [6]: > 120 min; Cmax [9]: 4530 ng/mL; CL/F [10]: 3.33 mL/min/kg; Tmax [11]: 1.83 h; CLint scaled [7]: < 12 mL/min/kg; half-life [12]: 245 min
14 |  |  | CS(=O)(=O)c1ccc(-c2nc(C(=O)NCc3cn(-c4cc(Br)ccn4)nn3)cs2)cc1 | AUC(0-t) at 72 h [8]: 6510 ng·h/mL; Cmax [9]: 1300 ng/mL; CL/F [10]: 25.8 mL/min/kg; Tmax [11]: 1.17 h; half-life [12]: 115 min
15 | 45% | 10.7% | CS(=O)(=O)c1ccc(-c2ncc(C(=O)NCc3cn(-c4cccc(Br)n4)nn3)s2)cc1 | 
16 | 28.1% | inactive | CS(=O)(=O)c1ccc(-c2ncc(C(=O)NCc3cn(-c4ccc(Cl)cn4)nn3)s2)cc1 | 
17 |  |  | CS(=O)(=O)c1ccc(-c2ncc(C(=O)NCc3cn(-c4cc(C(F)(F)F)ccn4)nn3)s2)cc1 | CLint scaled [3]: 22.8 mL/min/kg; AUC(0-t) at 72 h [8]: 14100 ng·h/mL; IC50 [4]: 80.6 nM; half-life [5]: > 120 min; half-life [6]: > 120 min; Cmax [9]: 2230 ng/mL; CL/F [10]: 11.8 mL/min/kg; Tmax [11]: 2 h; CLint scaled [7]: < 12 mL/min/kg; half-life [12]: 201 min
18 |  |  | CS(=O)(=O)c1ccc(-c2ncc(C(=O)NCc3cn(-c4cc(NC5CC(F)(F)C5)ccn4)nn3)s2)cc1 | CLint scaled [3]: 142 mL/min/kg; IC50 [4]: 138 nM; half-life [5]: > 120 min; half-life [6]: 40.2 min; CLint scaled [7]: < 12 mL/min/kg
19 | 41% | 25.9% | CS(=O)(=O)c1ccc(-c2ncc(C(=O)NCc3cn(-c4ccncc4Br)nn3)s2)cc1 | 

Row | Activity [1] | Activity [2] | SMILES | other results
20 | inactive | inactive | CS(=O)(=O)c1ccc(-c2nc(C(=O)NCc3cn(-c4ccnc(Br)c4)nn3)cs2)cc1 | 
21 | 48.4% | 13.3% | CS(=O)(=O)c1ccc(-c2nc(C(=O)NCc3cn(-c4ccc(F)cn4)nn3)cs2)cc1 | 
22 | 49.6% | 42.8% | CS(=O)(=O)c1ccc(-c2ncc(C(=O)NCc3cn(-c4cc(-c5cncc(C(F)(F)F)c5)ccn4)nn3)s2)cc1 | 
23 | 23.9% | 17.7% | CS(=O)(=O)c1ccc(-c2nc(C(=O)NCc3cn(-c4cncc(Br)c4)nn3)cs2)cc1 | 
24 | 42.8% | 35% | CS(=O)(=O)c1ccc(-c2ncc(C(=O)NCc3cn(-c4ccc(Br)nc4)nn3)s2)cc1 | 
25 | 20.2% | 6% | COc1ccnc(-n2cc(CNC(=O)c3csc(-c4ccc(S(C)(=O)=O)cc4)n3)nn2)c1 | 
26 | 32.5% | 26.6% | CS(=O)(=O)c1ccc(-c2ncc(C(=O)NCc3cn(-c4cc(Nc5cnn(C(F)F)c5)ccn4)nn3)s2)cc1 | 
27 | 50% | 15.6% | CS(=O)(=O)c1ccc(-c2nc(C(=O)NCc3cn(-c4cccc(Br)n4)nn3)cs2)cc1 | 
28 | 32.5% | 30.3% | CS(=O)(=O)c1ccc(-c2nc(C(=O)NCc3cn(-c4cc(-c5cncc(C(F)(F)F)c5)ccn4)nn3)cs2)cc1 | 
29 |  |  | CS(=O)(=O)c1ccc(-c2ncc(C(=O)NCc3cn(-c4cc(N5CCC(F)(F)CC5)ccn4)nn3)s2)cc1 | CLint scaled [3]: 92.1 mL/min/kg; IC50 [4]: 61 nM; half-life [5]: 79.7 min; half-life [6]: 59.2 min; CLint scaled [7]: 21.8 mL/min/kg
30 | 28.7% | 24.9% | CS(=O)(=O)c1ccc(-c2nc(C(=O)NCc3cn(-c4cc(-c5ccc(C(F)(F)F)s5)ccn4)nn3)cs2)cc1 | 
31 | 9.9% | inactive | COc1ccnc(-n2cc(CNC(=O)c3cnc(-c4ccc(S(C)(=O)=O)cc4)s3)nn2)c1 | 
32 |  |  | C[C@H](NC(=O)c1csc(-c2ccc(S(C)(=O)=O)cc2)n1)c1cn(-c2cc(C(F)(F)F)ccn2)nn1 | CLint scaled [3]: < 12 mL/min/kg; AUC(0-t) at 72 h [8]: 107000 ng·h/mL; IC50 [4]: 98.6 nM; half-life [5]: > 120 min; half-life [6]: > 120 min; Cmax [9]: 3230 ng/mL; CL/F [10]: 1.5 mL/min/kg; Tmax [11]: 7.33 h; CLint scaled [7]: < 12 mL/min/kg; half-life [12]: 443 min
33 | 36.8% | 33.5% | CS(=O)(=O)c1ccc(-c2ncc(C(=O)NCc3cn(-c4cncc(Br)c4)nn3)s2)cc1 | 
34 | inactive | inactive | CS(=O)(=O)c1ccc(-c2ncc(C(=O)NCc3cn(-c4ccnc(Br)c4)nn3)s2)cc1 | 
35 | 25.7% | 12.4% | CS(=O)(=O)c1ccc(-c2ncc(C(=O)NCc3cn(-c4ccc(F)cn4)nn3)s2)cc1 | 
36 | 11.4% | 28.7% | CS(=O)(=O)c1ccc(-c2nc(C(=O)NCc3cn(-c4cc(Nc5cnn(C(F)F)c5)ccn4)nn3)cs2)cc1 | 
37 | 10% | inactive | CS(=O)(=O)c1ccc(-c2nc(C(=O)NCc3cn(-c4ccc(Br)nc4)nn3)cs2)cc1 | 
